Assays:
Assay type in all cases: functional
[1] = test system: MOLT-4; assay: Cytotoxicity against Homo sapiens (human) MOLT4 cells after 48 hr by sulforhodamine B assay; details: MOLT-4, 48 h; for CC50: read-out: LC50 (the source's name)
[2] = test system: CCRF-CEM; assay: Cytotoxicity against Homo sapiens (human) CCRF-CEM cells after 48 hr by sulforhodamine B assay; details: for CC50: read-out: LC50 (the source's name)
[3] = test system: 786-0; assay: Cytotoxicity against Homo sapiens (human) 786-0 cells after 48 hr by sulforhodamine B assay; details: 786-0, 48 h
[4] = test system: HOP-62; assay: Cytotoxicity against Homo sapiens (human) HOP62 cells after 48 hr by sulforhodamine B assay; details: HOP-62, 48 h; for CC50: read-out: LC50 (the source's name)
[5] = test system: SNB-75; assay: Cytotoxicity against Homo sapiens (human) SNB75 cells after 48 hr by sulforhodamine B assay; details: SNB-75, 48 h; for CC50: read-out: LC50 (the source's name)
[6] = test system: UACC-62; assay: Cytotoxicity against Homo sapiens (human) UACC62 cells after 48 hr by sulforhodamine B assay; details: UACC-62, 48 h
[7] = test system: SK-MEL-2; assay: Cytotoxicity against Homo sapiens (human) SK-MEL-2 cells after 48 hr by sulforhodamine B assay; details: SK-MEL-2, 48 h
[8] = test system: BT-549; assay: Cytotoxicity against Homo sapiens (human) BT549 cells after 48 hr by sulforhodamine B assay; details: BT-549, 48 h
[9] = test system: SF-295; assay: Cytotoxicity against Homo sapiens (human) SF295 cells after 48 hr by sulforhodamine B assay; details: SF-295, 48 h; for CC50: read-out: LC50 (the source's name)
[10] = test system: SK-OV-3; assay: Cytotoxicity against Homo sapiens (human) SKOV3 cells after 48 hr by sulforhodamine B assay; details: SK-OV-3, 48 h
[11] = test system: SF-268; assay: Cytotoxicity against Homo sapiens (human) SF268 cells assessed as cell growth at 10^-4 M after 48 hr by […] assay; details: SF-268, 48 h, read-out: Activity
[12] = test system: SF-539; assay: Cytotoxicity against Homo sapiens (human) SF539 cells after 48 hr by sulforhodamine B assay; details: SF-539, 48 h
[13] = test system: NCI-H522; assay: Cytotoxicity against Homo sapiens (human) NCI-H522 cells after 48 hr by sulforhodamine B assay; details: NCI-H522, 48 h; for CC50: read-out: LC50 (the source's name)
[14] = test system: MDA-MB-231; assay: Cytotoxicity against Homo sapiens (human) MDA-MB-231 cells after 48 hr by sulforhodamine B assay; details: MDA-MB-231, 48 h
[15] = test system: SW-620; assay: Cytotoxicity against Homo sapiens (human) SW620 cells after 48 hr by sulforhodamine B assay; details: SW-620, 48 h; for CC50: read-out: LC50 (the source's name)
[16] = test system: ACHN; assay: Cytotoxicity against Homo sapiens (human) ACHN cells after 48 hr by sulforhodamine B assay; details: for CC50: read-out: LC50 (the source's name)
[17] = test system: OVCAR-3; assay: Cytotoxicity against Homo sapiens (human) OVCAR3 cells after 48 hr by sulforhodamine B assay; details: OVCAR-3, 48 h
[18] = test system: OVCAR-5; assay: Cytotoxicity against Homo sapiens (human) OVCAR5 cells after 48 hr by sulforhodamine B assay; details: OVCAR-5, 48 h; for CC50: read-out: LC50 (the source's name)
[19] = test system: CAKI-1; assay: Cytotoxicity against Homo sapiens (human) Caki1 cells after 48 hr by sulforhodamine B assay; details: CAKI-1, 48 h; for CC50: read-out: LC50 (the source's name)
[20] = test system: RXF 393; assay: Cytotoxicity against Homo sapiens (human) RXF393 cells after 48 hr by sulforhodamine B assay; details: RXF 393, 48 h; for CC50: read-out: LC50 (the source's name)
[21] = test system: HCT-116; assay: Cytotoxicity against Homo sapiens (human) HCT116 cells after 48 hr by sulforhodamine B assay; details: HCT-116, 48 h; for CC50: read-out: LC50 (the source's name)
[22] = test system: NCI-H322M; assay: Cytotoxicity against Homo sapiens (human) NCI-H322M cells after 48 hr by sulforhodamine B assay; details: for CC50: read-out: LC50 (the source's name)
[23] = test system: SF-268; assay: Cytotoxicity against Homo sapiens (human) SF268 cells after 48 hr by sulforhodamine B assay; details: SF-268, 48 h; for CC50: read-out: LC50 (the source's name)
[24] = test system: OVCAR-8; assay: Cytotoxicity against Homo sapiens (human) OVCAR8 cells after 48 hr by sulforhodamine B assay; details: OVCAR-8, 48 h
[25] = test system: EKVX; assay: Cytotoxicity against Homo sapiens (human) EKVX cells after 48 hr by sulforhodamine B assay; details: for CC50: read-out: LC50 (the source's name)
[26] = test system: SNB-19; assay: Cytotoxicity against Homo sapiens (human) SNB19 cells after 48 hr by sulforhodamine B assay; details: SNB-19, 48 h
[27] = test system: COLO 205; assay: Cytotoxicity against Homo sapiens (human) COLO205 cells after 48 hr by sulforhodamine B assay; details: COLO 205, 48 h; for CC50: read-out: LC50 (the source's name)

ClCc1ccccc1Cn1cnc2c(Cl)nc(Cl)nc21
GI50 [1]: 0.2 µM
TGI [1]: 0.63 µM
CC50 [1]: 3.54 µM
GI50 [2]: 0.03 µM
TGI [2]: 0.09 µM
CC50 [2]: 0.47 µM
GI50 [3]: 1.86 µM
LC50 [3]: 6.45 µM
TGI [3]: 3.47 µM
GI50 [4]: 2.04 µM
TGI [4]: 3.63 µM
CC50 [4]: 6.45 µM
GI50 [5]: 1.54 µM
TGI [5]: 3.54 µM
GI50 [6]: 1.31 µM
LC50 (concentration causing 50% net cell kill) [6]: 5.24 µM
TGI [6]: 2.63 µM
GI50 [7]: 2.18 µM
LC50 (concentration killing 50% of cells) [7]: 8.51 µM
TGI [7]: 4.36 µM
GI50 [8]: 0.45 µM
LC50 (50% lethal concentration) [8]: 4.16 µM
TGI [8]: 1.47 µM
GI50 [9]: 1.9 µM
TGI [9]: 3.38 µM
CC50 [9]: 6.02 µM
GI50 [10]: 1.82 µM
LC50 [10]: 6.91 µM
TGI [10]: 3.54 µM
growth at 100 µM [11]: 0%
GI50 [12]: 1.47 µM
LC50 (concentration killing 50% of cells) [12]: 5.62 µM
TGI [12]: 2.88 µM
GI50 [13]: 0.58 µM
TGI [13]: 1.99 µM
CC50 [13]: 6.76 µM
GI50 [14]: 0.33 µM
LC50 [14]: 3.98 µM
TGI [14]: 1.38 µM
GI50 [15]: 0.15 µM
TGI [15]: 0.35 µM
CC50 [15]: 0.81 µM
GI50 [16]: 0.47 µM
TGI [16]: 1.62 µM
CC50 [16]: 4.16 µM
GI50 [17]: 0.21 µM
LC50 [17]: 1.54 µM
TGI [17]: 0.51 µM
GI50 [18]: 1.58 µM
TGI [18]: 2.95 µM
CC50 [18]: 5.62 µM
GI50 [19]: 0.36 µM
TGI [19]: 0.89 µM
CC50 [19]: 3.09 µM
GI50 [20]: 0.1 µM
TGI [20]: 0.49 µM
GI50 [21]: 0.19 µM
TGI [21]: 0.38 µM
CC50 [21]: 0.75 µM
GI50 [22]: 1.73 µM
TGI [22]: 3.27 µM
CC50 [22]: 5.88 µM
GI50 [23]: 1.77 µM
TGI [23]: 4.16 µM
GI50 [24]: 1.23 µM
LC50 (concentration killing 50% of cells) [24]: 6.45 µM
TGI [24]: 2.81 µM
GI50 [25]: 1.77 µM
TGI [25]: 3.23 µM
CC50 [25]: 5.88 µM

ClCc1cccc(Cn2cnc3c(Cl)ncnc32)c1
GI50 [1]: 15.8 µM
TGI [1]: 37.1 µM
CC50 [1]: 89.1 µM
GI50 [2]: 1.9 µM
TGI [2]: 3.89 µM
CC50 [2]: 7.62 µM
GI50 [3]: 6.16 µM
LC50 [3]: 50.1 µM
TGI [3]: 19.9 µM
GI50 [4]: 2.63 µM
TGI [4]: 5.12 µM
CC50 [4]: 10.2 µM
GI50 [5]: 2.08 µM
TGI [5]: 4.57 µM
CC50 [5]: 10 µM
GI50 [6]: 1.82 µM
LC50 (concentration causing 50% net cell kill) [6]: 6.31 µM
TGI [6]: 3.38 µM
GI50 [7]: 21.9 µM
LC50 (concentration killing 50% of cells) [7]: > 100 µM
TGI [7]: 51.3 µM
GI50 [8]: 15.1 µM
LC50 (50% lethal concentration) [8]: 60.3 µM
TGI [8]: 30.2 µM
GI50 [9]: 3.23 µM
TGI [9]: 8.7 µM
CC50 [9]: 29.5 µM
GI50 [10]: 3.31 µM
LC50 [10]: 33.1 µM
TGI [10]: 10.5 µM
GI50 [12]: 19.9 µM
LC50 (concentration killing 50% of cells) [12]: 61.7 µM
TGI [12]: 35.5 µM
GI50 [26]: 2.63 µM
LC50 [26]: > 100 µM
TGI [26]: 12.6 µM
GI50 [13]: 18.6 µM
TGI [13]: 66.1 µM
CC50 [13]: > 100 µM
GI50 [14]: 1.99 µM
LC50 [14]: 8.12 µM
TGI [14]: 4.07 µM
GI50 [15]: 2.13 µM
TGI [15]: 4.36 µM
CC50 [15]: 8.91 µM
GI50 [16]: 2.08 µM
TGI [16]: 4.07 µM
CC50 [16]: 8.12 µM
GI50 [17]: 1.62 µM
LC50 [17]: 5.75 µM
TGI [17]: 3.02 µM
GI50 [27]: 3.09 µM
TGI [27]: 10.5 µM
CC50 [27]: 74.1 µM
GI50 [18]: 2.08 µM
TGI [18]: 4.36 µM
CC50 [18]: 8.91 µM
GI50 [19]: 1.54 µM
TGI [19]: 2.95 µM
CC50 [19]: 5.62 µM
GI50 [20]: 2.29 µM
TGI [20]: 24 µM
CC50 [20]: 70.8 µM
GI50 [21]: 1.47 µM
TGI [21]: 3.09 µM
CC50 [21]: 6.31 µM
GI50 [22]: 1.9 µM
TGI [22]: 3.46 µM
CC50 [22]: 6.45 µM
GI50 [23]: 3.54 µM
TGI [23]: 15.5 µM
CC50 [23]: > 100 µM
GI50 [24]: 21.9 µM
LC50 (concentration killing 50% of cells) [24]: 79.4 µM
TGI [24]: 41.7 µM
GI50 [25]: 18.6 µM
TGI [25]: 33.9 µM
CC50 [25]: 63.1 µM

ClCc1ccccc1Cn1cnc2nc(Cl)nc(Cl)c21
GI50 [1]: 1.34 µM
TGI [1]: 3.23 µM
CC50 [1]: 7.94 µM
GI50 [2]: 0.1 µM
TGI [2]: 0.3 µM
CC50 [2]: 0.93 µM
GI50 [3]: 2.63 µM
LC50 [3]: 30.9 µM
TGI [3]: 7.07 µM
GI50 [4]: 2.69 µM
TGI [4]: 5.49 µM
CC50 [4]: 16.6 µM
GI50 [5]: 1.9 µM
TGI [5]: 4.46 µM
CC50 [5]: > 100 µM
GI50 [6]: 1.2 µM
LC50 (concentration causing 50% net cell kill) [6]: 6.76 µM
TGI [6]: 2.81 µM
GI50 [7]: 2.75 µM
LC50 (concentration killing 50% of cells) [7]: > 100 µM
TGI [7]: 5.75 µM
GI50 [8]: 1.34 µM
LC50 (50% lethal concentration) [8]: 7.07 µM
TGI [8]: 3.09 µM
GI50 [9]: 19.9 µM
TGI [9]: 35.5 µM
CC50 [9]: 61.6 µM
GI50 [10]: 5.88 µM
LC50 [10]: 56.2 µM
TGI [10]: 20.9 µM
growth at 100 µM [11]: 0%
GI50 [12]: 2.13 µM
LC50 (concentration killing 50% of cells) [12]: 8.31 µM
TGI [12]: 4.26 µM
GI50 [13]: 2.95 µM
TGI [13]: 7.24 µM
CC50 [13]: > 100 µM
GI50 [14]: 0.3 µM
LC50 [14]: 3.23 µM
TGI [14]: 0.91 µM
GI50 [15]: 0.26 µM
TGI [15]: 0.67 µM
CC50 [15]: 4.67 µM
GI50 [16]: 0.35 µM
TGI [16]: 1.25 µM
CC50 [16]: 3.54 µM
GI50 [17]: 14.1 µM
LC50 [17]: 53.7 µM
TGI [17]: 27.5 µM
GI50 [27]: 0.35 µM
TGI [27]: > 100 µM
CC50 [27]: > 100 µM
GI50 [18]: 2.69 µM
TGI [18]: 5.75 µM
CC50 [18]: 28.8 µM
GI50 [19]: 19.5 µM
TGI [19]: 34.7 µM
CC50 [19]: 61.6 µM
GI50 [20]: 0.001 µM
TGI [20]: 1.9 µM
CC50 [20]: 6.45 µM
GI50 [21]: 1.86 µM
TGI [21]: 4.07 µM
GI50 [22]: 4.26 µM
TGI [22]: 14.5 µM
CC50 [22]: 39.8 µM
GI50 [23]: 3.01 µM
TGI [23]: 24.5 µM
CC50 [23]: > 100 µM
GI50 [24]: 2.75 µM
LC50 (concentration killing 50% of cells) [24]: 75.9 µM
TGI [24]: 7.07 µM
GI50 [25]: 1.73 µM
TGI [25]: 3.23 µM
CC50 [25]: 6.02 µM
